Counter-ions that a name gives are not always drawn.
Columns and labels:
human NHE3 = target: T1, human NHE3 (Homo sapiens, UniProt P48764); test: NHE3 inhibition test (recovery of intracellular pH in cell line stably expressing human NHE3); type: cell-based; conditions: OK cells deficient in endogenous NHE stably expressing human NHE3; BCECF fluorescence, initial rate of pH recovery; read-out: human NHE3 inhibitory activity IC50
T1 sequence (P48764 26-834): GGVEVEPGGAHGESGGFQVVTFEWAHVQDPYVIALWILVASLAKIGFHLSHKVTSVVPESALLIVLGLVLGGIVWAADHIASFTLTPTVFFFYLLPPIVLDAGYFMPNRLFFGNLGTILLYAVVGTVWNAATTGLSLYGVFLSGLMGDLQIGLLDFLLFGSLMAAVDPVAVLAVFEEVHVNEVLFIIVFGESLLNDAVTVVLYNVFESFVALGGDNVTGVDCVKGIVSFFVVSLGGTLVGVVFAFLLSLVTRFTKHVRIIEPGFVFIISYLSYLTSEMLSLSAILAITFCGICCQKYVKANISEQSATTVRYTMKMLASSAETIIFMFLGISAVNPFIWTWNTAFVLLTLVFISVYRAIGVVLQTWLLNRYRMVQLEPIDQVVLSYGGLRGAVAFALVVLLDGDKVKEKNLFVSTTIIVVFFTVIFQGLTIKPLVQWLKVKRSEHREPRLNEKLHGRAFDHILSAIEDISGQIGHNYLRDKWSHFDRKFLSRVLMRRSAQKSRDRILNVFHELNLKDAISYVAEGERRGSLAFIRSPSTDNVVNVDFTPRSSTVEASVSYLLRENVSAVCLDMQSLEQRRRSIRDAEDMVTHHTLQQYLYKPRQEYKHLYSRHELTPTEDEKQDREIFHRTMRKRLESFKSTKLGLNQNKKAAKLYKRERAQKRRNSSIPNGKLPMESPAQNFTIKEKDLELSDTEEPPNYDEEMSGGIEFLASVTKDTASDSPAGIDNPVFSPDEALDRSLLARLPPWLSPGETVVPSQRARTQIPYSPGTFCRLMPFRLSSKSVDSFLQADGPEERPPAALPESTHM
Summary of the method: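 Opossum kidney cells lacking endogenous NHE, stably expressing human NHE3, loaded with BCECF-AM and acid-loaded by NH4Cl washout. Compound in Na-free buffer, then Na-containing buffer (pH 7.4) added; initial pH-recovery rate by BCECF fluorescence, IC50 versus no-compound recovery.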

SD rat = test: 32P-phosphate oral loading test using SD rat (phosphorus absorption inhibitory effect); type: in vivo; conditions: Rattus norvegicus, 0.5 h, SD male rats, plasma radioactivity 30 minutes after 32P-phosphate solution, vs control group, read-out: Rate of inhibition of phosphate absorption; for inhibition in vivo at 3 mg/kg: oral dose 3 mg/kg
Protocol: Phosphorus Absorption Inhibitory Effect of the Compound of the Present Invention in ^32P-Phosphate Oral Loading Test Using SD Rat
8-week-old SD male rats (Japan SLC, Inc.) were used as laboratory animals. Each test compound was suspended or dissolved at a concentration of 0.2 mg/mL or 0.6 mg/mL in Japanese Pharmacopoeia water for injection (manufactured by Hikari Pharmaceutical Co., Ltd.) and orally administered to each rat at a dose of 5 ml/kg body weight. Japanese Pharmacopoeia water for injection was administered at the same dose as above to a control group. 5 minutes after the administration of the test compound or water for injection, a phosphate solution (1.3 mM NaH2PO4) containing 32P-phosphate (PerkinElmer Inc.) was administered thereto at a dose of 5 ml/kg. 30 minutes after the administration of the phosphate solution, blood was collected from the tail vein, and the blood sample was immediately mixed with EDTA-2K (manufactured by Dojindo Laboratories). Then, the mixture was centrifuged at 3000 rpm at 4° C. for 10 minutes to recover plasma.
The radioactivity in 100 μL of the plasma was measured using a liquid scintillation counter and used as a phosphate absorption count. The radioactivity in the plasma of the control group was used as a control, and the rate of inhibition of phosphate absorption was determined according to the following expression: Rate of inhibition of phosphate absorption (%)=(1−Phosphate absorption count of the test compound administration group/Phosphate absorption count of the control group)×100 (2) Results

IC50 (human NHE3)	SMILES	inhibition in vivo at 3 mg/kg (SD rat)	inhibition in vivo at 1 mg/kg (SD rat; oral dose 1 mg/kg)
10.7 nM	CN1Cc2c(Cl)cc(Cl)cc2[C@@H](c2cccc(-c3cc(OCCOCCOCCOCCNC(=O)COCC(=O)NCCOCCOCCOCCOc4cc(-c5cccc([C@@H]6CN(C)Cc7c(Cl)cc(Cl)cc76)c5)ncn4)ncn3)c2)C1 [Example 8-18, 1-[(6-{3-[(4R)-6,8-Dichloro-2-methyl-1,2,3,4-tetrahydroisoquinolin-4-yl]phenyl}pyrimidin-4-yl)oxy]-N-{2-[2-(2-{2-[(6-{3-[(4S)-6,8-dichloro-2-methyl-1,2,3,4-tetrahydroisoquinolin-4-yl]phenyl}pyrimidin-4-yl)oxy]ethoxy}ethoxy)ethoxy]ethyl}-13-oxo-3,6,9,15-tetraoxa-12-azaheptadecan-17-amide hydrochloride]	27%	
9.1 nM	CN1Cc2c(Cl)cc(Cl)cc2C(c2cccc(-c3cnnc(NCCOCCOCCNC(=O)C(O)C(O)C(=O)NCCOCCOCCNc4cc(-c5cccc(C6CN(C)Cc7c(Cl)cc(Cl)cc76)c5)cnn4)c3)c2)C1 [Example 8-14, (2R,3R)-N-[2-(2-{2-[(5-{3-[(4R)-6,8-Dichloro-2-methyl-1,2,3,4-tetrahydroisoquinolin-4-yl]phenyl}pyridazin-3-yl)amino]ethoxy}ethoxy)ethyl]-N′-[2-(2-{2-[(5-{3-[(4S)-6,8-dichloro-2-methyl-1,2,3,4-tetrahydroisoquinolin-4-yl]phenyl}pyridazin-3-yl)amino]ethoxy}ethoxy)ethyl]-2,3-dihydroxybutanamide tetrahydrochloride]		46%
41.7 nM	CN1Cc2c(Cl)cc(Cl)cc2[C@H](c2cccc(-c3ccc(NCCOCCOCCNC(=O)COCC(=O)NCCOCCOCCNc4ccc(-c5cccc([C@@H]6CN(C)Cc7c(Cl)cc(Cl)cc76)c5)cn4)nc3)c2)C1 [Example 8-7, 1-[(5-{3-[(4S)-6,8-Dichloro-2-methyl-1,2,3,4-tetrahydroisoquinolin-4-yl]phenyl}pyridin-2-yl)amino]-N-[2-(2-{2-[(5-{3-[(4S)-6,8-dichloro-2-methyl-1,2,3,4-tetrahydroisoquinolin-4-yl]phenyl}pyridin-2-yl)amino]ethoxy}ethoxy)ethyl]-10-oxo-3,6,12-trioxa-9-azatetradecan-14-amide hydrochloride]		
13.2 nM	CN1Cc2c(Cl)cc(Cl)cc2[C@H](c2cccc(-c3ccc(NCCOCCOCCNC(=O)CCCCC(=O)NCCOCCOCCNc4ccc(-c5cccc([C@@H]6CN(C)Cc7c(Cl)cc(Cl)cc76)c5)cn4)nc3)c2)C1 [Example 8-3, N,N′-Bis[2-(2-{2-[(5-{3-[(4S)-6,8-dichloro-2-methyl-1,2,3,4-tetrahydroisoquinolin-4-yl]phenyl}pyridin-2-yl)amino]ethoxy}ethoxy)ethyl]hexanediamide hydrochloride]		
10.6 nM	CN1Cc2c(Cl)cc(Cl)cc2[C@H](c2cccc(-c3cc(NCCOCCOCCOCCNC(=O)CCCCC(=O)NCCOCCOCCOCCNc4cc(-c5cccc([C@@H]6CN(C)Cc7c(Cl)cc(Cl)cc76)c5)ncn4)ncn3)c2)C1 [Example 8-13, N,N′-Bis{2-[2-(2-{2-[(6-{3-[(4S)-6,8-dichloro-2-methyl-1,2,3,4-tetrahydroisoquinolin-4-yl]phenyl}pyrimidin-4-yl)amino]ethoxy}ethoxy)ethoxy]ethyl}hexanediamide hydrochloride]		

The next lines start with the compound.

SMILES	IC50 (human NHE3)	inhibition in vivo at 3 mg/kg (SD rat)	inhibition in vivo at 1 mg/kg (SD rat; oral dose 1 mg/kg)
CN1Cc2c(Cl)cc(Cl)cc2[C@H](c2cccc(-c3cn(CCOCCOCCOCCNC(=O)Nc4ccc(NC(=O)NCCOCCOCCOCCn5cc(-c6cccc([C@@H]7CN(C)Cc8c(Cl)cc(Cl)cc87)c6)nn5)cc4)nn3)c2)C1 [Example 7-24, 1,1′-Benzene-1,4-diylbis{3-[2-(2-{2-[2-(4-{3-[(4S)-6,8-dichloro-2-methyl-1,2,3,4-tetrahydroisoquinolin-4-yl]phenyl}-1H-1,2,3-triazol-1-yl)ethoxy]ethoxy}ethoxy)ethyl]urea}hydrochloride]	5.6 nM	31%	
CN1Cc2c(Cl)cc(Cl)cc2[C@H](c2cccc(-c3nnn(CCOCCOCCNC(=O)NCCCCNC(=O)NCCOCCOCCn4nnc(-c5cccc([C@@H]6CN(C)Cc7c(Cl)cc(Cl)cc76)c5)n4)n3)c2)C1 [Example 7-9, 1,1′-Butane-1,4-diylbis[3-(2-{2-[2-(5-{3-[(4S)-6,8-dichloro-2-methyl-1,2,3,4-tetrahydroisoquinolin-4-yl]phenyl}-2H-tetrazol-2-yl)ethoxy]ethoxy}ethyl)urea]hydrochloride]	7.3 nM	22%	
CN1Cc2c(Cl)cc(Cl)cc2C(c2cccc(-c3cn(C)nn3)c2)C1 (stereo not drawn) [Example 1-8, 6,8-Dichloro-2-methyl-4-[3-(1-methyl-1H-1,2,3-triazol-4-yl)phenyl]-1,2,3,4-tetrahydroisoquinoline]	126 nM		
CN1Cc2c(Cl)cc(Cl)cc2[C@H](c2cccc(-c3cc(OCCOCCOCCNC(=O)Nc4ccc(NC(=O)NCCOCCOCCOc5cc(-c6cccc([C@@H]7CN(C)Cc8c(Cl)cc(Cl)cc87)c6)ncn5)cc4)ncn3)c2)C1 [Example 7-11, 1,1′-Benzene-1,4-diylbis {3-[2-(2-(2-{2-[(6-{3-[(4S)-6,8-dichloro-2-methyl-1,2,3,4-tetrahydroisoquinolin-4-yl]phenyl}pyrimidin-4-yl)oxy]ethoxy}ethoxy)ethyl]urea} trifluoroacetate]	33.5 nM		
CN1Cc2c(Cl)cc(Cl)cc2[C@H](c2cccc(-c3cn(CCOCCOCCOCCNC(=O)NCCCNC(=O)NCCOCCOCCOCCn4cc(-c5cccc([C@@H]6CN(C)Cc7c(Cl)cc(Cl)cc76)c5)nn4)nn3)c2)C1 [Example 7-35, 1,1′-Propane-1,3-diylbis {3-[2-(2-{2-[2-(4-{3-[(4S)-6,8-dichloro-2-methyl-1,2,3,4-tetrahydroisoquinolin-4-yl]phenyl}-1H-1,2,3-triazol-1-yl)ethoxy]ethoxy}ethoxy)ethyl]urea}hydrochloride]	4.4 nM		
Cc1cc(-c2cccc([C@@H]3CN(C)Cc4c(Cl)cc(Cl)cc43)c2)on1 [Example 5-1, (4S)-6,8-Dichloro-2-methyl-4-[3-(3-methyl-1,2-oxazol-5-yl)phenyl]-1,2,3,4-tetrahydroisoquinoline hydrochloride]	760 nM		
CCc1cc(-c2cccc([C@@H]3CN(C)Cc4c(Cl)cc(Cl)cc43)c2)ccn1 [Example 1-12, (4S)-6,8-Dichloro-4-[3-(2-ethylpyridin-4-yl)phenyl]-2-methyl-1,2,3,4-tetrahydroisoquinoline trifluoroacetate]	650 nM		
CN1Cc2c(Cl)cc(Cl)cc2[C@H](c2cccc(-c3cc(OCCOCCOCCNC(=O)NCCCCNC(=O)NCCOCCOCCOc4cc(-c5cccc([C@@H]6CN(C)Cc7c(Cl)cc(Cl)cc76)c5)ncn4)ncn3)c2)C1 [Example 7-12, 1,1′-Butane-1,4-diylbis {3-[2-(2-{2-[(6-{3-[(4S)-6,8-dichloro-2-methyl-1,2,3,4-tetrahydroisoquinolin-4-yl]phenyl}pyrimidin-4-yl)oxy]ethoxy}ethoxy)ethyl]urea} tetrahydrochloride]	7.5 nM		
CN1Cc2c(Cl)cc(Cl)cc2[C@H](c2cccc(-c3cc(OCCOCCOCCOCCNC(=O)NCCCCNC(=O)NCCOCCOCCOCCOc4cc(-c5cccc([C@@H]6CN(C)Cc7c(Cl)cc(Cl)cc76)c5)ncn4)ncn3)c2)C1 [Example 7-31, 1,1′-Butane-1,4-diylbis(3-{2-[2-(2-{2-[(6-{3-[(4S)-6,8-dichloro-2-methyl-1,2,3,4-tetrahydroisoquinolin-4-yl]phenyl}pyrimidin-4-yl)oxy]ethoxy}ethoxy)ethoxy]ethyl}urea) hydrochloride]	12.4 nM		
